Results: ChEMBL document CHEMBL3727366, “Heterocyclic compounds for the treatment of stress-related conditions” (2013)
Values belong to the compound of their own block, whether it stands above or below them. Activity calls are given as the source filed them. How the calls were made is not given here.

Legend:
Rattus norvegicus [1] = experiment: Inhibition of restraint stress-induced defecation in Wistar rat at 5 mL/kg, po dosed 1 or 2 hrs before restraint stress; type: functional, organism-based
Rattus norvegicus [2] = experiment: Inhibition of tail-pinch stress-induced feeding behavior in Wistar rat at 5 mL/kg, po dosed 1 or 2 hrs before tail-pinch stimulus; type: functional, organism-based
[3] = target: T1, Prolactin-releasing peptide receptor (Homo sapiens, UniProt P49683); experiment: Displacement of [3H]-PrRP from human GPR10 receptor expressed in HEK293 cell membranes incubated for 90 mins by liquid scintillation counting method
T1 sequence (P49683 whole entry): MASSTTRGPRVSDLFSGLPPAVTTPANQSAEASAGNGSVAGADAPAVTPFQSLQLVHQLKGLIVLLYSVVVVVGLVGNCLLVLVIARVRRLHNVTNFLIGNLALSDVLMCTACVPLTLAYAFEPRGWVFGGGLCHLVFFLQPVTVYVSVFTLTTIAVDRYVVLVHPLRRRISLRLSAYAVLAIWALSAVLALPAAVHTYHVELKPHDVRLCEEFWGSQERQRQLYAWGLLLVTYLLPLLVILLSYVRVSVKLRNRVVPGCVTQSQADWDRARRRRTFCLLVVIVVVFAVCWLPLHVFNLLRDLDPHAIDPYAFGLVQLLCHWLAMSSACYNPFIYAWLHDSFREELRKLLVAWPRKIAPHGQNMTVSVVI

Structure (SMILES): CC#CCn1c(N[C@@H](C)c2ccc(C(F)(F)F)cc2)nc2c(c1=O)CN(C(=O)c1ccc(OC)cc1)CC2
inhibition (Rattus norvegicus [1]): Active | inhibition (Rattus norvegicus [2]): Active

Structure (SMILES): COn1c(N[C@@H](C)c2ccc(Cl)cc2)nc2c(c1=O)CN(C(=O)c1cc3cccnc3s1)CC2
inhibition (Rattus norvegicus [1]): Active | inhibition (Rattus norvegicus [2]): Active

Ki [3]: 108 nM
Structure (SMILES): COn1c(N[C@@H](C)C2CCCCC2)nc2c(c1=O)CN(C(=O)c1ccc(Cl)cc1)CC2
inhibition (Rattus norvegicus [1]): Active | inhibition (Rattus norvegicus [2]): Active

Structure (SMILES): C#CCn1c(N[C@@H](C)c2ccc(C(F)(F)F)cc2)nc2c(c1=O)CN(C(=O)c1cccc(C#N)c1)CC2
inhibition (Rattus norvegicus [1]): Active | inhibition (Rattus norvegicus [2]): Active

Ki [3]: 8 nM
Structure (SMILES): CC[C@H](Nc1nc2c(c(=O)n1OC)CN(C(=O)c1ccc(C#N)cc1F)CC2)c1ccc(C(F)(F)F)cc1
inhibition (Rattus norvegicus [1]): Active | inhibition (Rattus norvegicus [2]): Active

Structure (SMILES): COn1c(NCc2ccc(Cl)cc2)nc2c(c1=O)CN(C(=O)c1ccc(Cl)cc1)CC2
inhibition (Rattus norvegicus [1]): Active | inhibition (Rattus norvegicus [2]): Active

Structure (SMILES): C#CCCn1c(N[C@@H](C)c2ccc(C(F)(F)F)cc2)nc2c(c1=O)CN(C(=O)c1ccc(-n3ccnc3)cc1)CC2
inhibition (Rattus norvegicus [1]): Active | inhibition (Rattus norvegicus [2]): Active

Structure (SMILES): COc1cc(Cl)ccc1C(=O)N1CCc2nc(N[C@@H](C)c3ccc(C(F)(F)F)cc3)n(OC)c(=O)c2C1
inhibition (Rattus norvegicus [1]): Active | inhibition (Rattus norvegicus [2]): Active

Structure (SMILES): COn1c(N[C@@H](C)c2ccc(C(F)(F)F)cc2)nc2c(c1=O)CN(C(=O)c1cnc3ccccc3c1)CC2
inhibition (Rattus norvegicus [1]): Active | inhibition (Rattus norvegicus [2]): Active

Structure (SMILES): COn1c(NC(CCC(F)(F)F)c2ccc(Cl)cc2)nc2c(c1=O)CN(C(=O)c1ccc(Cl)cc1)CC2 (stereo unspecified)
inhibition (Rattus norvegicus [1]): Active | inhibition (Rattus norvegicus [2]): Active

Structure (SMILES): CCC(Nc1nc2c(c(=O)n1OC)CN(C(=O)c1ccc(Cl)cc1)CC2)c1ccc(Cl)cc1 (stereo unspecified)
inhibition (Rattus norvegicus [1]): Active | inhibition (Rattus norvegicus [2]): Active

Structure (SMILES): C#CCCn1c(N[C@@H](C)c2ccc(C(F)(F)F)cc2)nc2c(c1=O)CN(C(=O)c1ccc(C#N)cc1)CC2
inhibition (Rattus norvegicus [1]): Active | inhibition (Rattus norvegicus [2]): Active

Structure (SMILES): C#CCn1c(N[C@@H](C)c2ccc(C(F)(F)F)cc2)nc2c(c1=O)CN(C(=O)c1ccc(C#N)cc1F)CC2
inhibition (Rattus norvegicus [1]): Active | inhibition (Rattus norvegicus [2]): Active

Structure (SMILES): COn1c(N[C@@H](C)c2ccc(C(F)(F)F)cc2)nc2c(c1=O)CN(C(=O)c1ccc3c(c1)CCC(=O)N3C)CC2
inhibition (Rattus norvegicus [1]): Active | inhibition (Rattus norvegicus [2]): Active

Structure (SMILES): COn1c(N[C@@H](C)c2ccc(C(F)(F)F)cc2)nc2c(c1=O)CN(C(=O)c1cc3cc(Cl)ccc3o1)CC2
inhibition (Rattus norvegicus [1]): Active | inhibition (Rattus norvegicus [2]): Active

Structure (SMILES): COn1c(N2CCCC2c2ccc(C(F)(F)F)cc2)nc2c(c1=O)CN(C(=O)c1ccc(Cl)cc1)CC2 (stereo unspecified)
inhibition (Rattus norvegicus [1]): Active | inhibition (Rattus norvegicus [2]): Active

Structure (SMILES): CCOc1ccc(C(=O)N2CCc3nc(N[C@@H](C)c4ccc(C(F)(F)F)cc4)n(OC)c(=O)c3C2)cc1
inhibition (Rattus norvegicus [1]): Active | inhibition (Rattus norvegicus [2]): Active

Structure (SMILES): C#CCCn1c(N[C@@H](C)c2ccc(C(F)(F)F)cc2)nc2c(c1=O)CN(C(=O)c1ccc(-c3cnco3)cc1)CC2
inhibition (Rattus norvegicus [1]): Active | inhibition (Rattus norvegicus [2]): Active

Structure (SMILES): C[C@H](Nc1nc2c(c(=O)n1N(C)C)CN(C(=O)COc1ccc(Cl)cc1)CC2)c1ccc(Cl)cc1
inhibition (Rattus norvegicus [1]): Active | inhibition (Rattus norvegicus [2]): Active

Structure (SMILES): CC#CCn1c(N[C@@H](C)c2ccc(C(F)(F)F)cc2)nc2c(c1=O)CN(C(=O)c1ccc(-n3ccnc3)cc1)CC2
inhibition (Rattus norvegicus [1]): Active | inhibition (Rattus norvegicus [2]): Active

Structure (SMILES): C#CCn1c(N[C@@H](C)c2ccc(C(F)(F)F)cc2)nc2c(c1=O)CN(C(=O)c1c(F)cccc1F)CC2
inhibition (Rattus norvegicus [1]): Active | inhibition (Rattus norvegicus [2]): Active

Structure (SMILES): CC#CCn1c(N[C@@H](C)c2ccc(C(F)(F)F)cc2)nc2c(c1=O)CN(C(=O)c1ccc3c(c1)CCC(=O)N3)CC2
inhibition (Rattus norvegicus [1]): Active | inhibition (Rattus norvegicus [2]): Active

Structure (SMILES): C#CCn1c(N[C@@H](C)c2ccc(Cl)cc2)nc2c(c1=O)CN(C(=O)c1ccc(Cl)cc1)CC2
inhibition (Rattus norvegicus [1]): Active | inhibition (Rattus norvegicus [2]): Active

Structure (SMILES): C[C@H](Nc1nc2c(c(=O)n1N(C)C)CN(C(=O)c1ccc(C#N)cc1F)CC2)c1ccc(C(F)(F)F)cc1
inhibition (Rattus norvegicus [1]): Active | inhibition (Rattus norvegicus [2]): Active

Structure (SMILES): C#CCCn1c(N[C@@H](C)c2ccc(C(F)(F)F)cc2)nc2c(c1=O)CN(C(=O)c1ccc(C#N)cc1F)CC2
inhibition (Rattus norvegicus [1]): Active | inhibition (Rattus norvegicus [2]): Active

Structure (SMILES): C[C@H](Nc1nc2c(c(=O)n1N(C)C)CN(C(=O)c1c(F)cc(F)cc1F)CC2)c1ccc(C(F)(F)F)cc1
inhibition (Rattus norvegicus [1]): Active | inhibition (Rattus norvegicus [2]): Active

Structure (SMILES): C[C@H](Nc1nc2c(c(=O)n1N1CCOCC1)CN(C(=O)c1ccc(C#N)cc1)CC2)c1ccc(C(F)(F)F)cc1
inhibition (Rattus norvegicus [1]): Active | inhibition (Rattus norvegicus [2]): Active

Structure (SMILES): CC#CCn1c(N[C@@H](C)c2ccc(C(F)(F)F)cc2)nc2c(c1=O)CN(C(=O)c1ccc3ccccc3n1)CC2
inhibition (Rattus norvegicus [1]): Active | inhibition (Rattus norvegicus [2]): Active

Structure (SMILES): C[C@H](Nc1nc2c(c(=O)n1N(C)C)CN(C(=O)c1ccc(Cl)cc1)CC2)c1ccc(C(F)(F)F)cc1
inhibition (Rattus norvegicus [1]): Active | inhibition (Rattus norvegicus [2]): Active

Structure (SMILES): COn1c(N[C@@H](C)c2ccc(C(F)(F)F)cc2)nc2c(c1=O)CN(C(=O)c1ccc(OC(F)(F)F)cc1)CC2
inhibition (Rattus norvegicus [1]): Active | inhibition (Rattus norvegicus [2]): Active

Structure (SMILES): CC#CCn1c(N[C@@H](C)c2ccc(C(F)(F)F)cc2)nc2c(c1=O)CN(C(=O)c1ccc3cccnc3c1)CC2
inhibition (Rattus norvegicus [1]): Active | inhibition (Rattus norvegicus [2]): Active

Structure (SMILES): CC#CCn1c(N[C@@H](C)c2ccc(C(F)(F)F)cc2)nc2c(c1=O)CN(C(=O)c1ccc(C#N)cc1)CC2
inhibition (Rattus norvegicus [1]): Active | inhibition (Rattus norvegicus [2]): Active

Structure (SMILES): C#CCCn1c(N[C@@H](C)c2ccc(C(F)(F)F)cc2)nc2c(c1=O)CN(C(=O)c1ccc(C(=O)N(C)C)cc1)CC2
inhibition (Rattus norvegicus [1]): Active | inhibition (Rattus norvegicus [2]): Active

Structure (SMILES): COn1c(N[C@@H](C)c2ccc(Cl)cc2)nc2c(c1=O)CN(C(=O)c1ccc(Cl)cc1)CC2
inhibition (Rattus norvegicus [1]): Active | inhibition (Rattus norvegicus [2]): Active

Structure (SMILES): CC#CCn1c(N[C@@H](C)c2ccc(C(F)(F)F)cc2)nc2c(c1=O)CN(C(=O)c1cnc3ccccc3c1)CC2
inhibition (Rattus norvegicus [1]): Active | inhibition (Rattus norvegicus [2]): Active

Structure (SMILES): CC#CCn1c(N[C@@H](C)c2ccc(C(F)(F)F)cc2)nc2c(c1=O)CN(C(=O)c1ccc(Cl)cc1)CC2
inhibition (Rattus norvegicus [1]): Active | inhibition (Rattus norvegicus [2]): Active

Structure (SMILES): CC#CCn1c(N[C@@H](C)c2ccc(C(F)(F)F)cc2)nc2c(c1=O)CN(C(=O)c1ccc3c(c1)OCO3)CC2
inhibition (Rattus norvegicus [1]): Active | inhibition (Rattus norvegicus [2]): Active

Structure (SMILES): CCOc1ccc(CNc2nc3c(c(=O)n2OC)CN(C(=O)c2ccc(C#N)cc2F)CC3)cc1
inhibition (Rattus norvegicus [1]): Active | inhibition (Rattus norvegicus [2]): Active

Structure (SMILES): COn1c(N[C@@H](C)c2ccc(C(F)(F)F)cc2)nc2c(c1=O)CN(C(=O)c1ccc(Cl)cc1)CC2
inhibition (Rattus norvegicus [1]): Active | inhibition (Rattus norvegicus [2]): Active

Structure (SMILES): C#CCn1c(N[C@@H](C)c2ccc(C(F)(F)F)cc2)nc2c(c1=O)CN(C(=O)c1ccc(Cl)cc1)CC2
inhibition (Rattus norvegicus [1]): Active | inhibition (Rattus norvegicus [2]): Active

Structure (SMILES): COn1c(N[C@@H](C)c2ccc(C(F)(F)F)cc2)nc2c(c1=O)CN(C(=O)c1ccc(C#N)cc1)CC2
inhibition (Rattus norvegicus [1]): Active | inhibition (Rattus norvegicus [2]): Active

Structure (SMILES): C#CCCn1c(N[C@@H](C)c2ccc(C(F)(F)F)cc2)nc2c(c1=O)CN(C(=O)c1ccc(C)cc1)CC2
inhibition (Rattus norvegicus [1]): Active | inhibition (Rattus norvegicus [2]): Active

Structure (SMILES): C=Cc1ccc(C(=O)N2CCc3nc(N[C@@H](C)c4ccc(C(F)(F)F)cc4)n(OC)c(=O)c3C2)cc1
inhibition (Rattus norvegicus [1]): Active | inhibition (Rattus norvegicus [2]): Active

Structure (SMILES): COn1c(N[C@@H](C)c2ccc(C(F)(F)F)cc2)nc2c(c1=O)CN(C(=O)c1ccc(Cl)c(C)c1)CC2
inhibition (Rattus norvegicus [1]): Active | inhibition (Rattus norvegicus [2]): Active

Structure (SMILES): CC#CCn1c(N[C@@H](C)c2ccc(C(F)(F)F)cc2)nc2c(c1=O)CN(C(=O)c1ccc(C#N)cc1F)CC2
inhibition (Rattus norvegicus [1]): Active | inhibition (Rattus norvegicus [2]): Active

Ki [3]: 15 nM
Structure (SMILES): COn1c(N[C@@H](C)c2ccc(C(F)(F)F)cc2)nc2c(c1=O)CN(C(=O)c1cc3ccccc3s1)CC2

Structure (SMILES): C[C@H](Nc1nc2c(c(=O)n1N(C)C)CN(C(=O)c1ccc(Cl)cc1)CC2)c1ccc(Cl)cc1
inhibition (Rattus norvegicus [1]): Active | inhibition (Rattus norvegicus [2]): Active

Structure (SMILES): CC#CCn1c(N[C@@H](C)c2ccc(C(F)(F)F)cc2)nc2c(c1=O)CN(C(=O)c1cc3ccccn3n1)CC2
inhibition (Rattus norvegicus [1]): Active | inhibition (Rattus norvegicus [2]): Active

Structure (SMILES): COn1c(NC(c2ccc(Cl)cc2)C(C)C)nc2c(c1=O)CN(C(=O)c1ccc(Cl)cc1)CC2 (stereo unspecified)
inhibition (Rattus norvegicus [1]): Active | inhibition (Rattus norvegicus [2]): Active

Structure (SMILES): COn1c(NCc2ccc(C(F)(F)F)cc2)nc2c(c1=O)CN(C(=O)c1ccc(Cl)cc1)CC2
inhibition (Rattus norvegicus [1]): Active | inhibition (Rattus norvegicus [2]): Active

Structure (SMILES): CC#CCn1c(N[C@@H](C)c2ccc(C(F)(F)F)cc2)nc2c(c1=O)CN(C(=O)c1ccc(-c3cnco3)cc1)CC2
inhibition (Rattus norvegicus [1]): Active | inhibition (Rattus norvegicus [2]): Active

Structure (SMILES): CC#CCn1c(N[C@@H](C)c2ccc(C(F)(F)F)cc2)nc2c(c1=O)CN(C(=O)c1ccc(C)c(C)c1)CC2
inhibition (Rattus norvegicus [1]): Active | inhibition (Rattus norvegicus [2]): Active

Structure (SMILES): C#CCCn1c(N[C@@H](C)c2ccc(C(F)(F)F)cc2)nc2c(c1=O)CN(C(=O)c1nc3ccccc3[nH]1)CC2
inhibition (Rattus norvegicus [1]): Active | inhibition (Rattus norvegicus [2]): Active

Structure (SMILES): C[C@H](Nc1nc2c(c(=O)n1N(C)C)CN(C(=O)COc1ccc(Cl)cc1)CC2)c1ccc(C(F)(F)F)cc1
inhibition (Rattus norvegicus [1]): Active | inhibition (Rattus norvegicus [2]): Active

Structure (SMILES): COn1c(N[C@@H](C)c2ccc(C(F)(F)F)cc2)nc2c(c1=O)CN(C(=O)c1ccc(C#N)cc1F)CC2
inhibition (Rattus norvegicus [1]): Active | inhibition (Rattus norvegicus [2]): Active
